The values below are quoted from earlier work in patent US20030004141A1, “Medical devices, compositions and methods for treating vulnerable plaque” (priority 2001, published 2003).

For this data set the following is noted: general statement from cited pre-clinical and clinical studies.

As to `CNC(=O)[C@@H](NC(=O)[C@H](CC(C)C)[C@H](O)C(=O)NO)C(C)(C)C` [marimastat], the in vivo toxicity result is recorded as “minimal in vivo toxicity”.
